Results from US8507507B2, “Modulators of toll-like receptors” (Gilead Sciences, Inc., priority 2009, dated 2013).

These compounds were tested on human Peripheral Blood Mononuclear Cell (PMBC) (assay: PBMC assay: cytokine (IFN-α) stimulation at 24 hours). Settings: Homo sapiens, PBMC, 24 h, IFN-α in supernatant (Luminex), three fold above background, read-out: MEC = minimum concentration for induction of IFN-alpha = 3-fold over background.
Format: cell-based
Description: Assays were conducted to determine cytokine stimulation at 24 hours from human Peripheral Blood Mononuclear Cell (PMBC) using the compounds of the present invention. The assays were run in duplicate, with 8-point, half-log dilution curves. The compounds of the present invention were diluted from 10 mM DMSO solution. Cell supernatants are assayed directly for IFNα and 1:10 dilution for TNFα. The assays were performed in a similar fashion as described in Bioorg. Med. Chem. Lett. 16, 4559, (2006). Specifically, cryo-preserved PBMCs were thawed and seeded 96 well plates with 750,000 cells/well in 190 μL/well cell media. The PBMCs were then incubated for 1 hour at 37° C. at 5% CO2. Then, the compounds of the present invention were added in 10 μL cell media at 8 point, half-log dilution titration. The plates were incubated at 37° C. and 5% CO2 for 24 hours and then spinned at 1200 rpm for 10 min, which was followed by collecting supernatant and storing the same at −80° C. Cytokine secretion was assayed with Luminex® (brand of Multiplexing bead-based platform, Luminx® Corporation Austin Tex. USA) and Upstate Biosciences® (Upstate Biosciences®, Charlottesville, Va., USA) multi-plex kits, using a Luminex® analysis instrument. IFN MEC value for a compound was the minimum concentration at which IFN-α production stimulated by the compound reached three fold above background, as determined using the assay method above.
In the case of COCCOc1nc(N)c2[nH]c(=O)n(Cc3ccc(-c4ccc(CN5CCCC5)cc4)cc3F)c2n1 [AJ], the minimal effective concentration is reported as 0.001 µM.
CCN1CCc2ncc(-c3ccc(Cn4c(=O)[nH]c5c(N)nc(OCCOC)nc54)cc3)cc2C1 [AE] was tested, and the minimal effective concentration was 0.001 µM.
Nc1nc(OCC2CCOCC2)nc2c1[nH]c(=O)n2Cc1ccc(-c2ccc(CN3CCCC3)cc2)c(C(F)(F)F)c1 [AS] was tested, and the minimal effective concentration was 0.001 µM.
CCCCOc1nc(N)c2[nH]c(=O)n(Cc3ccnc(-c4ccc(CN5CCCC5)cc4)c3)c2n1 [I] gave a minimal effective concentration of 0.001 µM.
CCCCOc1nc(N)c2[nH]c(=O)n(Cc3ccc(-c4ccc(CN5CCCC5)c(F)c4)cc3)c2n1 [S] gave a minimal effective concentration of 0.001 µM.
CCCCOc1nc(N)c2[nH]c(=O)n(Cc3cnc(-c4cccc(CN5CCCC5)c4)s3)c2n1 [L] gave a minimal effective concentration of 0.001 µM.
Compound COCCOc1nc(N)c2[nH]c(=O)n(Cc3cc(-c4ccc(CN5CCCC5)cc4)ccc3Cl)c2n1 [AB] has a minimal effective concentration of 0.1 to 1 µM.
With Nc1nc(OCC2CCOCC2)nc2c1[nH]c(=O)n2Cc1ccc(-c2ccc(CN3CCCC3)nc2)cc1 [AU] the minimal effective concentration was 0.001 µM.
In the case of Nc1nc(OCC2CCOCC2)cc2c1[nH]c(=O)n2Cc1ccc(-c2cccc(CN3CCCC3)c2)nc1 [BD], the minimal effective concentration is reported as 0.001 µM.
Compound COCCOc1nc(N)c2[nH]c(=O)n(Cc3ccc(-c4ccc(CN5CCCC5)cc4)c(F)c3)c2n1 [AL] has a minimal effective concentration of 0.001 µM.
With CCCCOc1nc(N)c2[nH]c(=O)n(Cc3ccc(-c4cccc(CN5CCCC5)c4)cn3)c2n1 [K] the minimal effective concentration was 0.001 µM.
CCCCOc1nc(N)c2[nH]c(=O)n(Cc3cccc(-c4ccc(CN5CCCC5)cc4)c3)c2n1 [C] showed a minimal effective concentration of 0.001 to 0.009 µM.
CCCCOc1nc(N)c2[nH]c(=O)n(Cc3ccc(-c4ccc(CN5CCCC5)cc4)nc3)c2n1 [H] showed a minimal effective concentration of 0.001 µM.
For CCCCOc1nc(N)c2[nH]c(=O)n(Cc3cccc(-c4cccc(CN5CCCC5)c4)c3)c2n1 [B], the minimal effective concentration was 0.01 to 0.099 µM.
For COCCOc1nc(N)c2[nH]c(=O)n(Cc3ccc(-c4cccc(CN5CCOCC5)c4)cc3)c2n1 [Y], the minimal effective concentration was 0.001 to 0.009 µM.
In the case of Nc1nc(OCC2CCOCC2)cc2c1[nH]c(=O)n2Cc1ccc(-c2ccc(CN3CCCC3)nc2)cc1 [BA], the minimal effective concentration is reported as 0.001 µM.
For CCCCOc1cc2c([nH]c(=O)n2Cc2ccc(-c3ccc(CN4CCCC4)cc3)cc2)c(N)n1 [BC], the minimal effective concentration was 0.001 µM.
Compound COCCOc1nc(N)c2[nH]c(=O)n(Cc3cc(-c4cccc(CN5CCCC5)c4)ccc3Cl)c2n1 [AA] has a minimal effective concentration of 0.1 to 1 µM.
In the case of COCCOc1nc(N)c2[nH]c(=O)n(Cc3ccc(-c4ccc(CN5CCCC5)cn4)cc3)c2n1 [AC], the minimal effective concentration is reported as 0.001 µM.
Work on CCCCOc1cc2c([nH]c(=O)n2Cc2ccc(-c3ccc(CN4CCCC4)cc3)nc2)c(N)n1 [BG] yielded a minimal effective concentration of 0.001 µM.
COCCOc1nc(N)c2[nH]c(=O)n(Cc3ccc(-c4ccc(CN5CCCC5)cc4)cc3)c2n1 [U] was tested, and the minimal effective concentration was 0.001 µM.
CCCCOc1nc(N)c2[nH]c(=O)n(Cc3ccc(-c4nc(CN5CCCC5)cs4)cc3)c2n1 [P] showed a minimal effective concentration of 0.001 µM.
For Nc1nc(OCC2CCOCC2)nc2c1[nH]c(=O)n2Cc1ccc(-c2ccc(CN3CCCC3)cc2)cc1 [AR], the minimal effective concentration was 0.001 µM.
With CCCCOc1nc(N)c2[nH]c(=O)n(Cc3cccc(-c4ccccc4CN4CCCC4)c3)c2n1 [A] the minimal effective concentration was 0.1 to 1 µM.
With COCCOc1nc(N)c2[nH]c(=O)n(Cc3ccc(-c4ccc(CN5CCCC5)cc4)nc3)c2n1 [AF] the minimal effective concentration was 0.001 µM.
With Nc1nc(OCC2CCOCC2)cc2c1[nH]c(=O)n2Cc1ccc(-c2ccc(CN3CCCC3)cc2)cc1 [AZ] the minimal effective concentration was 0.001 µM.
COCCOc1nc(N)c2[nH]c(=O)n(Cc3ccc(-c4ccc(CN5CCCC5)nc4)cc3)c2n1 [AD] was tested, and the minimal effective concentration was 0.001 µM.
CCCCOc1nc(N)c2[nH]c(=O)n(Cc3ccc(-c4ccc(CN5CCCC5)cn4)cc3)c2n1 [O] showed a minimal effective concentration of 0.001 µM.
With COCCOc1nc(N)c2[nH]c(=O)n(Cc3ccc(-c4cccc(CN5CCCC5)c4)nc3)c2n1 [AG] the minimal effective concentration was 0.001 µM.
Nc1nc(OCC2CCOCC2)nc2c1[nH]c(=O)n2Cc1ccc(-c2cccc(CN3CCCC3)c2)c(C(F)(F)F)c1 [AT] was tested, and the minimal effective concentration was 0.001 µM.
Compound CCCCOc1nc(N)c2[nH]c(=O)n(Cc3ccc(-c4ncc(CN5CCCC5)s4)cc3)c2n1 [Q] has a minimal effective concentration of 0.001 µM.
Compound Nc1nc(OCC2CCOCC2)nc2c1[nH]c(=O)n2Cc1ccc(-c2ccc(CN3CCCC3)cn2)cc1 [AV] has a minimal effective concentration of 0.001 µM.
COCCOc1nc(N)c2[nH]c(=O)n(Cc3ccc(-c4cccc(CN5CCCC5)c4)cc3)c2n1 [T] showed a minimal effective concentration of 0.001 µM.
Compound COCCOc1nc(N)c2[nH]c(=O)n(Cc3ccc(-c4cc(CN5CCCC5)cc(C(F)(F)F)c4)cc3)c2n1 [AM] has a minimal effective concentration of 0.01 to 0.099 µM.
For CCCCOc1nc(N)c2[nH]c(=O)n(Cc3ccc(-c4cc(CN5CCCC5)ccc4OC)cc3)c2n1 [R], the minimal effective concentration was 0.001 µM.
Compound CCCCOc1nc(N)c2[nH]c(=O)n(Cc3ccc(-c4ccccc4CN4CCCC4)cc3)c2n1 [D] has a minimal effective concentration of 0.001 µM.
With CCCCOc1nc(N)c2[nH]c(=O)n(Cc3ccc(-c4ccc(CN5CCCC5)cc4)cn3)c2n1 [J] the minimal effective concentration was 0.001 µM.
CCCCOc1nc(N)c2[nH]c(=O)n(Cc3ccc(-c4cccc(CN5CCCC5)c4)nc3)c2n1 [G] showed a minimal effective concentration of 0.001 µM.
Nc1nc(OCC2CCOCC2)cc2c1[nH]c(=O)n2Cc1ccc(-c2csc(CN3CCCC3)n2)cc1 [BB] gave a minimal effective concentration of 0.001 to 0.009 µM.
In the case of COCCOc1nc(N)c2[nH]c(=O)n(Cc3ccc(-c4ccc(CN5CCOCC5)cc4)cc3)c2n1 [X], the minimal effective concentration is reported as 0.001 µM.
Work on COCCOc1nc(N)c2[nH]c(=O)n(Cc3ccc(-c4ccc(CN5CCCC5)cc4)cc3C#N)c2n1 [AK] yielded a minimal effective concentration of 0.001 µM.
With COCCOc1nc(N)c2[nH]c(=O)n(Cc3ccc(-c4ccc(CN5CCCC5)cc4)cc3Cl)c2n1 [AH] the minimal effective concentration was 0.001 µM.
Work on CCCCOc1nc(N)c2[nH]c(=O)n(Cc3ccc(-c4cccc(CN5CCCC5)c4)cc3)c2n1 [E] yielded a minimal effective concentration of 0.001 µM.
In the case of COCCOc1nc(N)c2[nH]c(=O)n(Cc3ccc(-c4cccc(CN5CCN(C)CC5)c4)cc3)c2n1 [Z], the minimal effective concentration is reported as 0.001 µM.
Compound CCCCOc1cc2c([nH]c(=O)n2Cc2ccc(-c3cccc(CN4CCCC4)c3)nc2)c(N)n1 [BF] has a minimal effective concentration of 0.001 µM.
Work on CCCCOc1nc(N)c2[nH]c(=O)n(Cc3ccc(-c4ccc(CN5CCCC5)nc4)cc3)c2n1 [N] yielded a minimal effective concentration of 0.001 µM.
Nc1nc(OCC2CCOCC2)cc2c1[nH]c(=O)n2Cc1ccc(-c2ccc(CN3CCCC3)cc2)nc1 [BE] was tested, and the minimal effective concentration was 0.001 µM.
CCCCOc1nc(N)c2[nH]c(=O)n(Cc3ccc(-c4ccc(CN5CCCC5)cc4)cc3)c2n1 [F] showed a minimal effective concentration of 0.001 µM.
COCCOc1nc(N)c2[nH]c(=O)n(Cc3ccc(-c4cccc(CN5CCCCC5)c4)cc3)c2n1 [W] showed a minimal effective concentration of 0.001 µM.
For COCCOc1nc(N)c2[nH]c(=O)n(Cc3ccc(-c4ccc(C(C)N5CCCC5)cc4)cc3)c2n1 (centres unmarked) [V], the minimal effective concentration was 0.001 µM.
Work on COCCOc1nc(N)c2[nH]c(=O)n(Cc3ccc(-c4ccc(CN5CCCC5)cc4)c(C(F)(F)F)c3)c2n1 [AN] yielded a minimal effective concentration of 0.001 µM.
Compound CCCCOc1nc(N)c2[nH]c(=O)n(Cc3cnc(-c4ccc(CN5CCCC5)cc4)s3)c2n1 [Example M] has a minimal effective concentration of 0.001 µM.
COCCOc1nc(N)c2[nH]c(=O)n(Cc3ccc(-c4ccc(CN5CCCC5)cc4)c(Cl)c3)c2n1 [AI] was tested, and the minimal effective concentration was 0.001 µM.
Compound COCCOc1nc(N)c2[nH]c(=O)n(Cc3ccc(-c4ccc(CN5CCCC5)cc4)cc3)c2c1Cl [AY] has a minimal effective concentration of 0.01 to 0.099 µM.
Work on COCCOc1nc(N)c2[nH]c(=O)n(Cc3ccc(-c4ccc(CCCN5CCCC5)nc4)cc3)c2n1 [AP] yielded a minimal effective concentration of 0.001 µM.
In the case of COCCOc1nc(N)c2[nH]c(=O)n(Cc3ccc(-c4cccc(CN5CCCC5)c4)c(C(F)(F)F)c3)c2n1 [AO], the minimal effective concentration is reported as 0.001 µM.
In the case of Nc1nc(OCC2CCOCC2)nc2c1[nH]c(=O)n2Cc1ccc(-c2cccc(CN3CCCC3)c2)cc1 [AQ], the minimal effective concentration is reported as 0.001 µM.

Same assay, conditions: IFN-α in supernatant (Luminex), three fold above background
With COCCOc1nc(N)c2[nH]c(=O)n(Cc3ccc(-c4ccc(CN5CCCC5)cc4)cc3)c2n1 [AX] the “MEC = minimum concentration for induction of IFN-alpha = 3-fold over background” value was “b (b: 1 nM-9 nM)”.

Same assay, conditions: IFN-α in supernatant (Luminex), three fold above background, read-out: MEC = minimum concentration for induction of IFN-alpha = 3-fold over background
COCCOc1cc2c([nH]c(=O)n2Cc2ccc(-c3cccc(CN4CCCC4)c3)cc2)c(N)n1 [AW] gave a minimal effective concentration of 0.001 to 0.009 µM.
